Molecules are shown by their SMILES. A value given as a limit tells only on which side of the number the result lay.

The first assay addresses T1, Aldo-keto reductase family 1 member B1 (Sus scrofa, UniProt P80276). As to the kind of experiment: Inhibition of aldose reductase from pig lenses.
The term IC50 denotes the point on the concentration scale where inhibition reaches its midpoint. `O=C(O)Cc1cn(Cc2cccc(Cl)c2)c2ccccc12` registered an IC50 of 14 µM.

`Clc1ccc(CN(Cc2ccc(Cl)cc2)c2nnn[nH]2)cc1` showed an IC50 of 336 µM.

`O=C(O)c1nnn(-c2cccc(Br)c2)c1-c1ccccc1` displayed an IC50 of 274 µM.

As for `O=C(O)C1CC(=O)N(Cc2ccc(Cl)cc2)C1` (stereo not drawn), the IC50 stood at 8 µM.

`O=C1NC(=O)[C@@]2(CCOc3ccc(F)cc32)N1` [SORBINIL] gave an IC50 of 1.1 µM.

On to `COc1ccc2c(C(=S)N(C)CC(=O)O)cccc2c1C(F)(F)F` [TOLRESTAT], for which the midpoint of inhibition, the IC50, lay at 0.038 µM.

A further assay has as its target T1, Aldo-keto reductase family 1 member B1. Kind of assay: Inhibition of aldose reductase from pig lenses; no inhibition.
With `CC(OCc1ccc(Cl)cc1)C(NC(=O)CC(C)(C)C)C(=O)O` (stereo not drawn), the IC50 is over 400 µM.

As for `CC(OCc1ccccc1)C(NC(=O)OCc1ccccc1)C(=O)O` (stereo not drawn), the IC50 was over 300 µM.

The values are drawn from ChEMBL document CHEMBL1138775, “Soft docking and multiple receptor conformations in virtual screening” (J Med Chem, 2004).
